According to PubChem BioAssay AID1259407 (Chemical Carcinogenesis Research Information System (CCRIS), 2018):
Calls of active or inactive are those of the source. How the calls were made is not given here.

Tested on: CCRIS mutagenicity, Ames/micronucleus/aberration tests
Experiment: CCRIS mutagenicity studies
[1] = Test System: AMES SALMONELLA TYPHIMURIUM, Strain/Indicator: TA98, Metabolic Activation: HAMSTER, LIVER, S-9, AROCLOR 1254, Method: STANDARD PLATE
[2] = Test System: AMES SALMONELLA TYPHIMURIUM, Strain/Indicator: TA98, Metabolic Activation: NONE, Method: STANDARD PLATE
[3] = Test System: AMES SALMONELLA TYPHIMURIUM, Strain/Indicator: TA98, Metabolic Activation: RAT, LIVER, S-9, AROCLOR 1254, Method: STANDARD PLATE
[4] = Test System: AMES SALMONELLA TYPHIMURIUM, Strain/Indicator: TA100, Metabolic Activation: HAMSTER, LIVER, S-9, AROCLOR 1254, Method: STANDARD PLATE
[5] = Test System: AMES SALMONELLA TYPHIMURIUM, Strain/Indicator: TA100, Metabolic Activation: NONE, Method: STANDARD PLATE
[6] = Test System: AMES SALMONELLA TYPHIMURIUM, Strain/Indicator: TA100, Metabolic Activation: RAT, LIVER, S-9, AROCLOR 1254, Method: STANDARD PLATE
[7] = Test System: AMES SALMONELLA TYPHIMURIUM, Strain/Indicator: TA1535, Metabolic Activation: HAMSTER, LIVER, S-9, AROCLOR 1254, Method: STANDARD PLATE
[8] = Test System: AMES SALMONELLA TYPHIMURIUM, Strain/Indicator: TA1535, Metabolic Activation: NONE, Method: STANDARD PLATE
[9] = Test System: AMES SALMONELLA TYPHIMURIUM, Strain/Indicator: TA1535, Metabolic Activation: RAT, LIVER, S-9, AROCLOR 1254, Method: STANDARD PLATE
[10] = Test System: AMES SALMONELLA TYPHIMURIUM, Strain/Indicator: TA1537, Metabolic Activation: HAMSTER, LIVER, S-9, AROCLOR 1254, Method: STANDARD PLATE
[11] = Test System: AMES SALMONELLA TYPHIMURIUM, Strain/Indicator: TA1537, Metabolic Activation: NONE, Method: STANDARD PLATE
[12] = Test System: AMES SALMONELLA TYPHIMURIUM, Strain/Indicator: TA1537, Metabolic Activation: RAT, LIVER, S-9, AROCLOR 1254, Method: STANDARD PLATE
[13] = Test System: AMES SALMONELLA TYPHIMURIUM, Strain/Indicator: TA1538, Metabolic Activation: HAMSTER, LIVER, S-9, AROCLOR 1254, Method: STANDARD PLATE
[14] = Test System: AMES SALMONELLA TYPHIMURIUM, Strain/Indicator: TA1538, Metabolic Activation: NONE, Method: STANDARD PLATE
[15] = Test System: AMES SALMONELLA TYPHIMURIUM, Strain/Indicator: TA1538, Metabolic Activation: RAT, LIVER, S-9, AROCLOR 1254, Method: STANDARD PLATE

Measured: mutagenic call

CC(C)CN
inactive: Test System: AMES SALMONELLA TYPHIMURIUM, Strain/Indicator: TA98, Metabolic Activation: HAMSTER, LIVER, S-9, AROCLOR 1254 (10%), Method: PREINCUBATION inactive; negative | Test System: AMES SALMONELLA TYPHIMURIUM, Strain/Indicator: TA98, Metabolic Activation: NONE, Method: PREINCUBATION inactive; negative | Test System: AMES SALMONELLA TYPHIMURIUM, Strain/Indicator: TA98, Metabolic Activation: RAT, LIVER, S-9, AROCLOR 1254 (10%), Method: PREINCUBATION inactive; negative | Test System: AMES SALMONELLA TYPHIMURIUM, Strain/Indicator: TA100, Metabolic Activation: HAMSTER, LIVER, S-9, AROCLOR 1254 (10%), Method: PREINCUBATION inactive; negative | Test System: AMES SALMONELLA TYPHIMURIUM, Strain/Indicator: TA100, Metabolic Activation: NONE, Method: PREINCUBATION inactive; negative | Test System: AMES SALMONELLA TYPHIMURIUM, Strain/Indicator: TA100, Metabolic Activation: RAT, LIVER, S-9, AROCLOR 1254 (10%), Method: PREINCUBATION inactive; negative | Test System: AMES SALMONELLA TYPHIMURIUM, Strain/Indicator: TA1535, Metabolic Activation: HAMSTER, LIVER, S-9, AROCLOR 1254 (10%), Method: PREINCUBATION inactive; negative | Test System: AMES SALMONELLA TYPHIMURIUM, Strain/Indicator: TA1535, Metabolic Activation: NONE, Method: PREINCUBATION inactive; negative | Test System: AMES SALMONELLA TYPHIMURIUM, Strain/Indicator: TA1535, Metabolic Activation: RAT, LIVER, S-9, AROCLOR 1254 (10%), Method: PREINCUBATION inactive; negative | Test System: AMES SALMONELLA TYPHIMURIUM, Strain/Indicator: TA1537, Metabolic Activation: HAMSTER, LIVER, S-9, AROCLOR 1254 (10%), Method: PREINCUBATION inactive; negative | Test System: AMES SALMONELLA TYPHIMURIUM, Strain/Indicator: TA1537, Metabolic Activation: NONE, Method: PREINCUBATION inactive; negative | Test System: AMES SALMONELLA TYPHIMURIUM, Strain/Indicator: TA1537, Metabolic Activation: RAT, LIVER, S-9, AROCLOR 1254 (10%), Method: PREINCUBATION inactive; negative

O=CC(O)C(O)C(O)C(O)COC1OC(COC2OC(CO)C(O)C(O)C2O)C(O)C(O)C1O (centres undefined)
inactive: [1] inactive; negative | [2] inactive; negative | [3] inactive; negative | [4] inactive; negative | [5] inactive; negative | [6] inactive; negative | [7] inactive; negative | [8] inactive; negative | [9] inactive; negative | [10] inactive; negative | [11] inactive; negative | [12] inactive; negative | [13] inactive; negative | [14] inactive; negative | [15] inactive; negative | Test System: Mouse lymphoma, Strain/Indicator: L5178Y (tk+/tk-), Metabolic Activation: None, Method: Suspension/plate inactive; negative | Test System: Mouse lymphoma, Strain/Indicator: L5178Y (tk+/tk-), Metabolic Activation: Rat, Liver, S-9, Aroclor 1254, Method: Suspension/plate inactive; negative

CC(O)CCC(=O)c1ccoc1 (centres undefined)
inactive: [1] inactive; negative | [2] inactive; negative | [3] inactive; negative | [4] inactive; negative | [5] inactive; negative | [6] inactive; negative | [7] inactive; negative | [8] inactive; negative | [9] inactive; negative | [10] inactive; negative | [11] inactive; negative | [12] inactive; negative | [13] inactive; negative | [14] inactive; negative | [15] inactive; negative
